Columns and labels:
[1] = In-vivo plasma to lung partition coefficients of the compound, logP(lung) in rat; assay type: ADME, cell-free
[2] = In-vitro air to lung partition coefficients of the compound, logK(lung) (human/rat); settings: octanol/water
[3] = In-vitro air to blood partition coefficients of the compound, logK(blood) (human/rat); settings: octanol/water
[4] = In-vitro blood to lung partition coefficients of the compound, logP(lung) (human/rat)
[5] = In-vivo blood to lung partition coefficients of the compound, logP(lung) in rat; assay type: ADME

| SMILES | logP(lung) [1] | logK(lung) [2] | logK(blood) [3] | logP(lung) [4] | logP(lung) [5] |
| --- | --- | --- | --- | --- | --- |
| CC(C)NCC(O)COc1cccc2[nH]ccc12 (stereo not drawn) [PINDOLOL] | 1.01 | – | – | – | – |
| c1ccccc1 [BENZENE] | – | 1.08 | 1.05 | – | – |
| FS(F)(F)(F)(F)F [SULFUR HEXAFLUORIDE] | – | -2.14 | -2.17 | 0.03 | – |
| [He] [HELIUM] | – | -1.98 | -2 | 0.02 | – |
| CC [ETHANE] | – | -1.28 | -1.02 | -0.26 | – |
| O=C(O)c1ccc(-c2ccccc2)cc1 | -0.55 | – | – | – | – |
| Cn1c(=O)c2[nH]cnc2n(C)c1=O.O [THEOPHYLLINE] | -0.15 | – | – | – | – |
| C=CC(=C)Cl [CHLOROPRENE] | – | 1.12 | – | – | – |
| CC(C)NCC(O)COc1ccc(COCCOC(C)C)cc1 (stereo not drawn) [BISOPROLOL] | 1.62 | – | – | – | – |
| CN(C)CCCN1c2ccccc2CCc2ccc(Cl)cc21 [CLOMIPRAMINE] | – | – | – | – | 2.16 |
| CCn1cc(C(=O)O)c(=O)c2ccc(C)nc21 [NALIDIXIC ACID] | -0.48 | – | – | – | – |
| CCCCCCC1(CC)C(=O)NC(=O)NC1=O | 0.08 | – | – | – | – |
| CN(C/C=C/C#CC(C)(C)C)Cc1cccc2ccccc12 [TERBINAFINE] | 0.41 | – | – | – | – |
| CC(=O)Nc1ccc(OCC(O)CNC(C)C)cc1 (stereo not drawn) [PRACTOLOL] | – | – | – | – | 0.48 |
| Nc1cc(Cl)c(S(N)(=O)=O)cc1-c1nnn[nH]1 | 0.6 | – | – | – | – |
| CCCC(C)C | – | -0.1 | -0.39 | 0.29 | – |
| CCCC(CCC)C(=O)O [VALPROIC ACID] | -0.38 | – | – | – | – |
| COC(=O)[C@H]1[C@@H](OC(=O)c2ccccc2)C[C@@H]2CC[C@H]1N2C [COCAINE] | 1.06 | – | – | – | – |
| CCC1(c2ccccc2)C(=O)NC(=O)NC1=O [PHENOBARBITAL] | -0.08 | – | – | – | – |
| CCCC1(CC)C(=O)NC(=O)NC1=O | 0.16 | – | – | – | – |
| COc1ccc(CCCn2ncc3c2nc(N)n2nc(-c4ccco4)nc32)cc1 | – | – | – | – | 0.62 |
| CCCCCCCCC1(CC)C(=O)NC(=O)NC1=O | 0.49 | – | – | – | – |
| CC(C)NCC(O)COc1ccc(CCOCC2CC2)cc1 (stereo not drawn) [BETAXOLOL] | 2.29 | – | – | – | – |

| SMILES | logP(lung) [1] | logK(lung) [2] | logK(blood) [3] | logP(lung) [4] | logP(lung) [5] |
| --- | --- | --- | --- | --- | --- |
| ClCCl [METHYLENE CHLORIDE] | – | 0.76 | 1.12 | -0.36 | – |
| CCCCCC [HEXANE] | – | 0 | 0.21 | -0.21 | – |
| COc1cccc2c1C(=O)c1c(O)c3c(c(O)c1C2=O)C[C@@](O)(C(=O)CO)C[C@@H]3O[C@H]1C[C@H](N)[C@H](O)[C@H](C)O1 [DOXORUBICIN] | 0.53 | – | – | – | – |
| O=c1[nH]c(=O)n(C2CCCO2)cc1F (stereo not drawn) [TEGAFUR] | -0.59 | – | – | – | – |
| CN1C(=O)CC[C@H]1c1cccnc1 [COTININE] | -0.18 | – | – | – | – |
| Cc1onc(-c2c(Cl)cccc2Cl)c1C(=O)N[C@@H]1C(=O)N2[C@@H]1SC(C)(C)[C@@H]2C(=O)O [DICLOXACILLIN] | -0.92 | – | – | – | – |
| Cc1ccccc1C [O-XYLENE] | – | 1.94 | 1.42 | 0.52 | – |
| CN1C(=O)NC(=O)C(C)(C2=CCCCC2)C1=O (stereo not drawn) [HEXOBARBITAL] | 0.45 | – | – | – | – |
| OC(CCN1CCCCC1)(c1ccccc1)C1CC2C=CC1C2 (stereo not drawn) [BIPERIDEN] | 1.79 | – | – | – | – |
| CN1CCN(CCCN2c3ccccc3Sc3ccc(C(F)(F)F)cc32)CC1 [TRIFLUOPERAZINE] | – | – | – | – | 1.33 |
| O=C1CN=C(c2ccccc2)c2cc([N+](=O)[O-])ccc2N1 [NITRAZEPAM] | – | – | – | – | 0.26 |
| ClC=C(Cl)Cl [TRICHLOROETHYLENE] | – | 1.15 | 1.14 | 0.01 | – |
| CCOc1ccccc1C(N)=O [ETHENZAMIDE] | -0.03 | – | – | – | – |
| FC(F)OC(Cl)C(F)(F)F (stereo not drawn) [ISOFLURANE] | – | 0.2 | 0.2 | 0 | – |
| CCCCC [PENTANE] | – | -0.3 | -0.29 | -0.01 | – |
| Cc1nc(Nc2ccc(F)cc2)nc(N2CCc3ccccc3C2C)c1C.Cl (stereo not drawn) [REVAPRAZAN HYDROCHLORIDE] | 1.34 | – | – | – | – |
| FC(F)(F)c1ccc(Cl)cc1 | – | 1.63 | 1.43 | 0.2 | – |
| CC(C)=O [ACETONE] | – | 2.2 | 2.36 | -0.16 | – |
| CCCC(C)C1(CC)C(=O)NC(=S)NC1=O (stereo not drawn) [THIOPENTAL] | 0.08 | – | – | – | – |
| CC1(C)S[C@@H]2[C@H](NC(=O)COc3ccccc3)C(=O)N2[C@H]1C(=O)O [PENICILLIN V] | -0.8 | – | – | – | – |
| CC1CCCC1 [METHYLCYCLOPENTANE] | – | 0.23 | -0.07 | 0.3 | – |
| CCCCCCC [HEPTANE] | – | 0.4 | 0.5 | -0.1 | – |
| CCC1(CC)C(=O)NC(=O)NC1=O [BARBITAL] | 0 | – | – | – | – |

| SMILES | logP(lung) [1] | logK(lung) [2] | logK(blood) [3] | logP(lung) [4] | logP(lung) [5] |
| --- | --- | --- | --- | --- | --- |
| C1CC1 [CYCLOPROPANE] | – | -0.51 | -0.21 | -0.3 | – |
| FC(F)OC(F)(F)C(F)Cl (stereo not drawn) | – | 0.56 | 0.35 | 0.21 | – |
| O=C(O)c1ccccc1O [SALICYLIC ACID] | -0.72 | – | – | – | – |
| CCOCC [ETHER] | – | 1.14 | 1.11 | 0.03 | – |
| COn1cc(C(=O)O)c(=O)c2cc3c(cc21)OCO3 [MILOXACIN] | -0.29 | – | – | – | – |
| [C-]#[O+] [CARBON MONOXIDE] | – | -1.69 | -1.67 | -0.02 | – |
| COC(F)(F)C(Cl)Cl [METHOXYFLURANE] | – | 1.2 | 1.28 | -0.08 | – |
| CC1(C)[C@@H](O)CC[C@]2(C)[C@H]3C(=O)C=C4[C@@H]5C[C@@](C)(C(=O)O)CC[C@]5(C)CC[C@@]4(C)[C@]3(C)CC[C@@H]12 [ENOXOLONE] | -0.66 | – | – | – | – |
| CCC(C)(C)C | – | -0.22 | -0.59 | 0.37 | – |
| [N-]=[N+]=O [NITROUS OXIDE] | – | -0.37 | -0.34 | 0 | – |
| FC(F)(F)C(Cl)Br (stereo not drawn) [HALOTHANE] | – | 0.46 | 0.57 | -0.11 | – |
| FC(F)(F)CCl | – | 0.34 | 0.14 | 0.2 | – |
| C1CCCCC1 [CYCLOHEXANE] | – | 0.43 | 0.17 | 0.26 | – |
| C=CC [PROPENE] | – | -0.24 | -0.21 | -0.03 | – |
| ClC(Cl)Cl [CHLOROFORM] | – | 1.12 | 1.15 | -0.03 | – |
| CC(C)(C)NC[C@H](O)COc1nsnc1N1CCOCC1 [TIMOLOL] | 1.43 | – | – | – | – |
| CCC1(C)C(=O)NC(=O)NC1=O | -0.21 | – | – | – | – |
| c1ccc(C2(N3CCCCC3)CCCCC2)cc1 [PHENCYCLIDINE] | 1.61 | – | – | – | – |
| CCCCCCCC1(CC)C(=O)NC(=O)NC1=O | 0.12 | – | – | – | – |
| CCCCCC1(CC)C(=O)NC(=O)NC1=O | 0.22 | – | – | – | – |
| CCC(C)CC | – | -0.05 | -0.37 | 0.32 | – |
| C#C [ETHYNE] | – | -0.06 | -0.06 | 0 | – |
| CC(C)CO [ISOBUTANOL] | – | 2.6 | 2.92 | -0.32 | – |

| SMILES | logP(lung) [1] | logK(lung) [2] | logK(blood) [3] | logP(lung) [4] | logP(lung) [5] |
| --- | --- | --- | --- | --- | --- |
| ClC(Cl)=C(Cl)Cl [TETRACHLOROETHYLENE] | – | 1.86 | 1.19 | 0.67 | – |
| C=CC=C [BUTADIENE] | – | -0.32 | 0.09 | -0.41 | – |
| CCc1ccc(C(=O)C(C)CN2CCCC2)cc1 (stereo not drawn) [INAPERISONE] | 1.52 | – | – | – | – |
| CO [METHYL ALCOHOL] | – | 3.24 | 3.41 | -0.17 | – |
| CN1C(C(=O)Nc2ccccn2)=C(O)c2sccc2S1(=O)=O [TENOXICAM] | -0.49 | – | – | – | – |
| C1CO1 [OXIRANE] | – | 1.79 | 1.8 | -0.01 | – |
| CSc1ccc2c(c1)N(CCC1CCCCN1C)c1ccccc1S2 (stereo not drawn) [THIORIDAZINE] | 1.13 | – | – | – | – |
| CC(C)=CCN1CC[C@]2(C)c3cc(O)ccc3C[C@H]1[C@H]2C [(+)-PENTAZOCINE] | 1.43 | – | – | – | – |
| CCCC1O[C@@H]2C[C@H]3[C@@H]4CCC5=CC(=O)C=C[C@]5(C)[C@H]4[C@@H](O)C[C@]3(C)[C@]2(C(=O)CO)O1 (stereo partly drawn) [BUDESONIDE] | 0.94 | – | – | – | – |
| CCCCC1(CC)C(=O)NC(=O)NC1=O [BUTETHAL] | 0.18 | – | – | – | – |
| CC(Cl)(Cl)Cl [TRICHLOROETHANE] | – | 0.67 | 0.63 | 0.04 | – |
| CN1CCC[C@H]1c1cccnc1 [NICOTINE] | 0.32 | – | – | – | – |
| c1cc2ccc3cccc4ccc(c1)c2c34 [PYRENE] | 0.35 | – | – | – | – |
| CCC(C)=O [BUTANONE] | – | 2.01 | 2.24 | -0.23 | – |
| O=C1NC(=O)C(c2ccccc2)(c2ccccc2)N1 [PHENYTOIN] | -0.1 | – | – | – | – |
| Cc1nnc(SCC2=C(C(=O)O)N3C(=O)[C@@H](NC(=O)Cn4cnnn4)[C@H]3SC2)s1 [CEFAZOLIN] | -0.78 | – | – | – | – |
| O=C1Nc2ccc(Cl)cc2C(c2ccccc2Cl)=NC1O (stereo not drawn) [LORAZEPAM] | 0.44 | – | – | – | – |
| COC(=O)C(c1ccccc1)C1CCCCN1 (stereo not drawn) [METHYLPHENIDATE] | 1.54 | – | – | – | – |
| Cc1cccc(OCC(O)CNC(C)C)c1 (stereo not drawn) [TOLIPROLOL] | 0.89 | – | – | – | – |
| FCOC(C(F)(F)F)C(F)(F)F [SEVOFLURANE] | – | 0.11 | -0.2 | 0.31 | – |
| O=O [OXYGEN] | – | -1.62 | -1.58 | -0.04 | – |
| C=C | – | -0.25 | -0.53 | 0.28 | – |
